In paper PMC10762035, “Molecular basis of human trace amine-associated receptor 1 activation” (Nature Communications, 2024):
Positions count from the first letter of the chain named. Several values for one entry are separate records, joined by “and”; a condition that tells them apart may be missing. Identical values can stand only once. Like-named read-outs stand apart in the source and are kept apart here.

Assays:
[1] = target: T1, β2AR-Nterm-hTA1-F112^3.41W (CryoEM Construct) (Homo sapiens, UniProt Q96RJ0, F112W); assay: GloSensor cAMP accumulation assay, cryoEM construct; type: cell-based;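 also: cells transiently co-transfected with the receptor construct and GloSensor cAMP biosensor, luminescence read after 30 min compound exposure at room temperature in the dark as cAMP accumulation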;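 as to Normalized Luminescence Counts (N=2): normalized to the maximum response of β-PEA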
T1 construct: FLAG (N); 10xHis (N); TEV protease site (N); expressed in transfected cells; host or cells: HEK293T

hTA1 C5S = target: T2, hTA1 C5S (Homo sapiens, UniProt Q96RJ0, C5S); assay: GloSensor cAMP accumulation assay, C5S mutant; type: cell-based; settings: for C5S - Normalized Luminescence Counts (N=2): log[Compound], single wells
T2 construct: expressed in transfected cells; host or cells: HEK293T
T2 sequence (Q96RJ0 1-339 C5S): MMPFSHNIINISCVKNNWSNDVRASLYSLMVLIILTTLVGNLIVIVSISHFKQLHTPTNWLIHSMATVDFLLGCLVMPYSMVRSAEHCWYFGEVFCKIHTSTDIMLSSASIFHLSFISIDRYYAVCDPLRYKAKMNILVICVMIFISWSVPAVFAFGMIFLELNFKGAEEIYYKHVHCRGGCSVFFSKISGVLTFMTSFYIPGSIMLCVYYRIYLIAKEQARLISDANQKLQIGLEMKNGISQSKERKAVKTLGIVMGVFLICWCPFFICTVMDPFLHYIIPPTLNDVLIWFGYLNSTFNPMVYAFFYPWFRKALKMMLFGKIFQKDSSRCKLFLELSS

hTA1 C88/178S = target: T3, hTA1 C88/178S (Homo sapiens, UniProt Q96RJ0, C178S/C88S); assay: GloSensor cAMP accumulation assay, C88S/C178S double mutant; type: cell-based; settings: for Normalized Luminescence Counts (N=2): log[Compound], single replicate values
T3 construct: expressed in transfected cells; host or cells: HEK293T
T3 sequence (Q96RJ0 1-339 C88S/C178S): T2 sequence (Q96RJ0 1-339 C5S) with S5C, C88S, C178S

hTA1 T271A = target: T4, hTA1 T271A (Homo sapiens, UniProt Q96RJ0, T271A); assay: GloSensor cAMP accumulation assay, T271A mutant; type: cell-based
T4 construct: expressed in transfected cells; host or cells: HEK293T
T4 sequence (Q96RJ0 1-339 T271A): T2 sequence (Q96RJ0 1-339 C5S) with S5C, T271A

hTA1 T194A = target: T5, hTA1 T194A (Homo sapiens, UniProt Q96RJ0, T194A); assay: GloSensor cAMP accumulation assay, T194A mutant; settings: for cAMP accumulation response, individual replicate values of the concentration-response curve: hTA1 T194A, log[Agonist], Supplementary Figure 5 source data
T5 sequence (Q96RJ0 1-339 T194A): T2 sequence (Q96RJ0 1-339 C5S) with S5C, T194A

[2] = Cryo EM Construct minus WT average
[3] = C88S, C178S, each row is one independent experiment, 3 replicates

T1 sequence (Q96RJ0 with tags, fused parts or gaps F112W): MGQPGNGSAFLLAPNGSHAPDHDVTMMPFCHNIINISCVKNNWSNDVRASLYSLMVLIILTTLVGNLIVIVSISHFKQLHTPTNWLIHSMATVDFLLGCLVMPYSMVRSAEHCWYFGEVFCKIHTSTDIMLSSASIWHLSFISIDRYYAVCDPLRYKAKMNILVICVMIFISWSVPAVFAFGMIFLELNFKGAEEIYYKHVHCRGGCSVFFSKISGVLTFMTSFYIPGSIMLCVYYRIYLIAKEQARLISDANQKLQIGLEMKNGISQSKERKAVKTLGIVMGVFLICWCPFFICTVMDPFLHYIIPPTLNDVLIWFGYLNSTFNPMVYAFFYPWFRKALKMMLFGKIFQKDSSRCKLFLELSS

CCc1[nH]nc(C(=O)Nc2ccc([C@H]3CNCCO3)cc2)c1C [ralmitaront]
ΔEmax values (each mutant value - WT average), Mean [1, 2]: 72.2357 and 63.0743
ΔpEC50 values (each mutant value - WT average), Mean [1, 2]: -1.146 and -1.03
Emax values, Mean ([1]; Cryo EM Construct, mean of each independent experiment (3 replicates)): -1.146 and -1.03
Normalized Luminescence Counts (N=2) ([1]; CryoEM Construct, log[Compound], M = -5, single replicates): 105.279 and 102.248 and 77.3142 and 99.3117
Emax ([1]; CryoEM Construct, n=2, read-out: Span ± SEM (Emax normalized to β-PEA)): 107 ± 3.32%
Emax (hTA1 C5S; C5S, n=2, read-out: Span ± SEM (Emax normalized to β-PEA)): 53 ± 3.33%
ΔEmax values (each mutant value - WT average), Mean (hTA1 C5S; hTA1 C5S minus WT average): 16.2371 and 9.571
ΔpEC50 values (each mutant value - WT average), Mean (hTA1 C5S; hTA1 C5S minus WT average): -0.2888 and -0.07449
Emax values, Mean (hTA1 C5S; hTA1 C5S, β-PEA = 100, mean of 3 replicates, one line per independent experiment): 49.6851
Emax (hTA1 C5S; hTA1 C5S, β-PEA = 100, mean of 3 replicates, one line per independent experiment, read-out: Emax values, Mean): 56.4%
C5S - Normalized Luminescence Counts (N=2) (hTA1 C5S; M = -5): 56.5093 and 57.6833 and 45.4685 and 47.3256 and 58.0276 and 41.5948
C5S - Normalized Luminescence Counts (N=2) (hTA1 C5S; M = -5.522): 55.6739 and 48.0198 and 44.2267 and 42.3543 and 55.8182 and 41.3187
C5S - Normalized Luminescence Counts (N=2) (hTA1 C5S; M = -6): 54.1385 and 48.494 and 48.3811 and 37.8664 and 46.5661 and 38.2116
C5S - Normalized Luminescence Counts (N=2) (hTA1 C5S; M = -6.522): 36.3243 and 27.5639 and 26.277 and 37.3831 and 32.0666 and 36.4855
C5S - Normalized Luminescence Counts (N=2) (hTA1 C5S; M = -7): 17.0199 and 14.6491 and 16.7715 and 16.6005 and 20.1908 and 19.0861
ΔEmax values (each mutant value - WT average), Mean (hTA1 C88/178S; [3]): 18.4827 and 32.9242
ΔpEC50 values (each mutant value - WT average), Mean (hTA1 C88/178S; [3]): -0.118 and 0.09825
Normalized Luminescence Counts (N=2) (hTA1 C88/178S; C88S, C178S, M = -5): 55.2389 and 58.8007 and 61.0622 and 66.9199 and 93.0497 and 63.144
Normalized Luminescence Counts (N=2) (hTA1 C88/178S; C88S, C178S, M = -5.522): 59.988 and 60.3272 and 50.3202 and 55.743 and 72.6594 and 83.3832
Normalized Luminescence Counts (N=2) (hTA1 C88/178S; C88S, C178S, M = -6): 50.4332 and 47.6629 and 57.5569 and 67.8262 and 71.7532 and 58.9149
Normalized Luminescence Counts (N=2) (hTA1 C88/178S; C88S, C178S, M = -6.522): 36.7513 and 35.5075 and 46.8149 and 59.519 and 56.6493 and 50.3056
Normalized Luminescence Counts (N=2) (hTA1 C88/178S; C88S, C178S, M = -7): 22.2779 and 25.1613 and 25.3874 and 33.9934 and 41.0922 and 21.3061
Normalized Luminescence Counts (N=2) (hTA1 C88/178S; C88S, C178S, M = -7.522): 14.9281 and 10.2921 and 11.3663 and 21.004 and 25.2331 and 32.0299
Normalized Luminescence Counts (N=2) (hTA1 C88/178S; C88S, C178S, M = -8): 4.13 and 3.564 and 4.525 and 7.562 and 10.4313 and 11.0354
Normalized Luminescence Counts (N=2) (hTA1 C88/178S; C88S, C178S, M = -8.522): 1.1331 and 2.8292 and 0.7939 and 5.598 and 0.6137 and 2.8793
Normalized Luminescence Counts (N=2) (hTA1 C88/178S; C88S, C178S, M = -9): 0.3981 and 0.4547 and 0.9635 and -0.2925 and -0.1415 and 0.7648
Normalized Luminescence Counts (N=2) (hTA1 C88/178S; C88S, C178S, M = -9.522): -0.2803 and 1.19 and 0.172 and -1.501 and -1.35 and -2.105
Normalized Luminescence Counts (N=2) (hTA1 C88/178S; C88S, C178S, M = -10): 0.0589 and 1.359 and 0.002362 and -0.8967 and -0.2925 and -1.35
Normalized Luminescence Counts (N=2) (hTA1 C88/178S; C88S, C178S, M = -10.522): 1.077 and 0.1154 and 0.002362 and -1.501 and -1.199 and -1.048
Normalized Luminescence Counts (N=2) (hTA1 C88/178S; C88S, C178S, M = -11): -0.2238 and 0.172 and 0.7373 and -1.35 and -0.1415 and -1.048
Normalized Luminescence Counts (N=2) (hTA1 C88/178S; C88S, C178S, M = -11.522): 0.0589 and 0.7373 and 0.5112 and -2.105 and 0.7648 and -0.8967
Normalized Luminescence Counts (N=2) (hTA1 C88/178S; C88S, C178S, M = -12): 0.5112 and 0.7939 and 5.317 and -0.4436 and -0.5946 and -1.048
Normalized Luminescence Counts (N=2) (hTA1 C88/178S; C88S, C178S, M = -12.522): 0.7373 (2×) and 1.416 and -1.199 and -0.7456 and -2.105
Emax values, Mean (hTA1 C88/178S; C88S, C178S, normalized (β-PEA = 100), each row is one independent experiment, 3 replicates): 58.5968 and 73.0383
Emax (hTA1 C88/178S; read-out: Span ± SEM (Emax normalized to β-PEA)): 65.8 ± 7.22%
ΔpEC50 values (each mutant value - WT average), Mean (hTA1 T271A; T271A mutant minus WT average, Figure 5B): -0.01384
Emax values, Mean (hTA1 T271A; T271A mutant, Figure 5B, β-PEA = 100, each row one independent experiment (3 replicates)): 56.995
Emax (hTA1 T271A; T271A mutant, Figure 5B, β-PEA = 100, each row one independent experiment (3 replicates), read-out: Emax values, Mean): 65.2%
Emax (hTA1 T271A; T271A, n=2, read-out: Span ± SEM (Emax normalized to β-PEA)): 61.1 ± 4.08%
Emax values, Mean (hTA1 T194A; T149A (so in the source), single experiments (3 replicates each), β-PEA = 100): 41.3499 and 73.0935 and 32.2156
cAMP accumulation response, individual replicate values of the concentration-response curve (hTA1 T194A; M = -7.522): 13.1191 and 7.983 and 9.958 and 19.2742 and 14.6569 and 26.511
cAMP accumulation response, individual replicate values of the concentration-response curve (hTA1 T194A; M = -8): 2.846 and 8.97 and 3.241 and 12.5702 and 15.1897 and 10.4391
cAMP accumulation response, individual replicate values of the concentration-response curve (hTA1 T194A; M = -8.522): 0.8706 and -0.5123 and 0.673 and 2.359 and 3.025 and 2.8472
cAMP accumulation response, individual replicate values of the concentration-response curve (hTA1 T194A; M = -9): -1.105 and -0.3148 and -1.895 and 1.693 and 2.048 and 2.27
cAMP accumulation response, individual replicate values of the concentration-response curve (hTA1 T194A; M = -9.522): -1.895 and -1.698 and -1.5 and -0.7934 and 0.4941 and -0.3494
cAMP accumulation response, individual replicate values of the concentration-response curve (hTA1 T194A; M = -10): -0.9074 and -1.105 (2×) and -0.2606 and -0.1274 and 0.9825
cAMP accumulation response, individual replicate values of the concentration-response curve (hTA1 T194A; M = -10.522): -2.29 and -1.105 (2×) and -0.971 and -0.5714 and -0.1274
cAMP accumulation response, individual replicate values of the concentration-response curve (hTA1 T194A; M = -11): -1.105 (2×) and -0.5123 and -0.1274 and -0.527 and -0.3938
cAMP accumulation response, individual replicate values of the concentration-response curve (hTA1 T194A; M = -11.522): -1.5 and -0.9074 and -1.895 and -0.4826 and 0.2722 and -0.3494
cAMP accumulation response, individual replicate values of the concentration-response curve (hTA1 T194A; M = -12): -1.105 (2×) and -0.5123 and -0.8378 and -0.9266 and 0.05017
cAMP accumulation response, individual replicate values of the concentration-response curve (hTA1 T194A; M = -12.522): -0.5123 and -1.105 (2×) and -0.527 and 0.05017 and -0.6158
Emax (hTA1 T194A; read-out: Span ± SEM (Emax normalized to β-PEA), T194A): 48.9 ± 20.4%
